Holding throughout (type): cell-based
The target of experiment [1] is T1, GLP-1 receptor (Homo sapiens, UniProt P43220). Description: PathHunter β-arrestin assay, GLP-1 receptor. Also noted: host or cells: PathHunter CHO-K1 GLP1R β-Arrestin Cell Line. Conditions: β-arrestin-2 recruitment, PathHunter CHO-K1 GLP1R β-Arrestin Cell Line, 90 min at 37° C.; normalized to GLP-1; read-out: GLP-1R β Arrestin EC50.
Experiment [2] concerns the target T1, GLP-1 receptor. As to the kind of experiment: HitHunter cAMP assay, GLP-1 receptor. Conditions: for EC50: CHO cells stably expressing human GLP-1 receptor, cAMP accumulation, 30 min, read-out: EC50 GLP-1R; for Emax: CHO cells, cAMP, normalized to maximum signal from GLP-1 (high) and DMSO (low), read-out: Emax GLP-1R. In general terms: cAMP levels reflect the balance of adenylyl cyclase and phosphodiesterase activity.

Experiment [3] has as its target T2, GIP receptor (Homo sapiens, UniProt P48546).
T2 sequence (P48546 22-466): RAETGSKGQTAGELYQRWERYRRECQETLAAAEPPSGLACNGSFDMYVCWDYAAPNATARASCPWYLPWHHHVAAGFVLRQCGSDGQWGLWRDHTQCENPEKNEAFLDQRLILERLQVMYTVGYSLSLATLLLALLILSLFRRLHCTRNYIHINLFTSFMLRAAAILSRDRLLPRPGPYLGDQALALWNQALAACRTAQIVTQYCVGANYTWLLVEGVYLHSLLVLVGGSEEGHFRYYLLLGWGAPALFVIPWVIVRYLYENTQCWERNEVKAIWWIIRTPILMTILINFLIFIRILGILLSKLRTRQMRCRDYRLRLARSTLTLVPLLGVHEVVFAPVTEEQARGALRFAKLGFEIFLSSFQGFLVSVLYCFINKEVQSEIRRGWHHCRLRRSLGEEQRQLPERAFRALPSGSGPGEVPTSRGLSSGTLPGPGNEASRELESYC
Description: PathHunter β-arrestin assay, GIP receptor. Also noted: host or cells: PathHunter CHO-K1 GIPR β-Arrestin Cell Line. Conditions: β-arrestin-2 recruitment, PathHunter CHO-K1 GIPR β-Arrestin Cell Line, 90 min at 37° C.; normalized to GIP; read-out: GIPR β Arrestin EC50. In general terms: Arrestin recruitment assays detect the binding of arrestin to an activated receptor.

The target of experiment [4] is T2, GIP receptor. As to the kind of experiment: HitHunter cAMP assay, GIP receptor. Particulars: for EC50: CHO cells stably expressing GIP receptor, cAMP accumulation, 30 min, read-out: EC50 GIP-1R; for Emax: CHO cells, cAMP, normalized to maximum signal from GIP (high) and DMSO (low), read-out: Emax GIP-1R.

Structures are written as SMILES. *1 amine or outer side, *2 acyl side, *3 side chain or, on linkers, in order; H or OH if unused. Where a SMILES comes first, the peptide text is derived from it. Side-chain parts run from the residue outwards. [ ]: non-standard residue; d: D form. The star is where a group is joined. Isobutyryl(2-(3-CN-5-F-Ph)) = CC(C)(C(=O)*)c1cc(F)cc(C#N)c1; C20 diacid = O=C(O)CCCCCCCCCCCCCCCCCCC(=O)*; αMePhe(2-F) = C[C@](N)(Cc1ccccc1F)C(=O)O; γGlu = O=C(O)[C@H](CCC(=O)[*:2])N[*:1]; X77 = CC(C(=O)*)c1cc(F)cc(F)c1; AEEA = NCCOCCOCC(=O)O; Aib = CC(C)(N)C(=O)O; βAla = NCCC(=O)O

As usually defined, the EC50 is the concentration needed to bring the measured effect to its halfway point. For orientation: Emax means the size of the effect at its maximum, as opposed to the concentration needed.

T1 sequence (P43220 24-463): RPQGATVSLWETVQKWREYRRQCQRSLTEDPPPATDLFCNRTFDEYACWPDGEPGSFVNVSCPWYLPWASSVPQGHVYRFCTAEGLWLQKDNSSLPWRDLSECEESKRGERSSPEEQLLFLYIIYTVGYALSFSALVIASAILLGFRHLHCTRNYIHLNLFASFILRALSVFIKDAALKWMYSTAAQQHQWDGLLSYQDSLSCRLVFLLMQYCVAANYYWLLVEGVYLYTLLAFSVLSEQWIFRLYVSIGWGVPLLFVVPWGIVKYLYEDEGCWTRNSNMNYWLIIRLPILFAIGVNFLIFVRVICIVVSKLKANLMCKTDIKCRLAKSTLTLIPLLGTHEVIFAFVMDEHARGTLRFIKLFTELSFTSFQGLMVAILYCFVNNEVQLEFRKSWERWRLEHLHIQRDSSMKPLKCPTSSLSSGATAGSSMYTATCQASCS

For `CC[C@H](C)[C@H](NC(=O)[C@H](CC(C)C)NC(=O)[C@H](Cc1c[nH]c2ccccc12)NC(=O)[C@H](CCC(N)=O)NC(=O)[C@@H](NC(=O)[C@H](Cc1ccccc1)NC(=O)[C@H](C)NC(=O)[C@H](CCCCNC(=O)COCCOCCNC(=O)COCCOCCNC(=O)CC[C@H](NC(=O)CCCCCCCCCCCCCCCCCCC(=O)O)C(=O)O)NC(=O)[C@H](CCC(N)=O)NC(=O)[C@H](C)NC(=O)[C@@H](NC(=O)[C@H](CCCCN)NC(=O)[C@H](CC(=O)O)NC(=O)[C@H](CC(C)C)NC(=O)C(C)(C)NC(=O)[C@@H](NC(=O)[C@H](CO)NC(=O)[C@H](Cc1ccc(O)cc1)NC(=O)[C@H](CC(=O)O)NC(=O)[C@H](CO)NC(=O)[C@@H](NC(=O)[C@](C)(Cc1ccccc1F)NC(=O)[C@@H](NC(=O)CNC(=O)[C@H](CCC(=O)O)NC(=O)CCNC(=O)C(C)(C)c1cc(F)cc(C#N)c1)[C@@H](C)O)[C@@H](C)O)[C@@H](C)CC)[C@@H](C)CC)C(C)C)C(=O)N[C@@H](C)C(=O)NCC(=O)NCC(=O)N1CCC[C@H]1C(=O)N[C@@H](CO)C(=O)N[C@@H](CO)C(=O)NCC(=O)N[C@@H](C)C(=O)N1CCC[C@H]1C(=O)N1CCC[C@H]1C(=O)N1CCC[C@H]1C(=O)N[C@@H](CO)C(N)=O` [Compound 245] ({Isobutyryl(2-(3-CN-5-F-Ph))-βAla}-EGT[αMePhe(2-F)]TSDYSI[Aib]LDKIAQK([AEEA-AEEA-γGlu-C20 diacid])AFVQWLIAGGPSSGAPPPS-NH2), the EC50 was > 1000 nM at GLP-1 receptor [1], 0.1 to 1 nM on GLP-1 receptor [2], < 1000 nM at GIP receptor [3] and 0.1 to 1 nM at GIP receptor [4]. In addition, the Emax worked out at 122% at GLP-1 receptor [2] and 90% at GIP receptor [4].
On to `CC[C@H](C)[C@H](NC(=O)[C@H](CC(C)C)NC(=O)[C@H](Cc1c[nH]c2ccccc12)NC(=O)[C@H](CCC(N)=O)NC(=O)[C@@H](NC(=O)[C@H](Cc1ccccc1)NC(=O)[C@H](C)NC(=O)[C@H](CCCCNC(=O)COCCOCCNC(=O)COCCOCCNC(=O)CC[C@H](NC(=O)CCCCCCCCCCCCCCCCCCC(=O)O)C(=O)O)NC(=O)[C@H](CCC(N)=O)NC(=O)[C@H](C)NC(=O)[C@@H](NC(=O)[C@H](CCCCN)NC(=O)[C@H](CC(=O)O)NC(=O)[C@H](CC(C)C)NC(=O)C(C)(C)NC(=O)[C@@H](NC(=O)[C@H](CO)NC(=O)[C@H](Cc1ccc(O)cc1)NC(=O)[C@H](CC(=O)O)NC(=O)[C@H](CO)NC(=O)[C@@H](NC(=O)[C@H](Cc1ccccc1)NC(=O)[C@@H](NC(=O)CNC(=O)[C@H](CCC(=O)O)NC(=O)CCNC(=O)C(C)c1cc(F)cc(F)c1)[C@@H](C)O)[C@@H](C)O)[C@@H](C)CC)[C@@H](C)CC)C(C)C)C(=O)N[C@@H](C)C(=O)NCC(=O)NCC(=O)N1CCC[C@H]1C(=O)N[C@@H](CO)C(=O)N[C@@H](CO)C(=O)NCC(=O)N[C@@H](C)C(=O)N1CCC[C@H]1C(=O)N1CCC[C@H]1C(=O)N1CCC[C@H]1C(=O)N[C@@H](CO)C(N)=O` (stereo partly drawn) [Compound 216] ({X77-βAla}-EGTFTSDYSI[Aib]LDKIAQK([AEEA-AEEA-γGlu-C20 diacid])AFVQWLIAGGPSSGAPPPS-NH2), for which the EC50 is > 1000 nM at GLP-1 receptor [1], 0.1 to 1 nM at GLP-1 receptor [2], > 1000 nM at GIP receptor [3] and 10 to 100 nM on GIP receptor [4]. Besides, the Emax on GLP-1 receptor [2] worked out at 102%; at GIP receptor [4], 93%.
